Patent US4513001A, “β-Adrenergic 1-[1-benzimidazolyl]-N-[2-(4-hydroxy-3-methoxy-phenyl)-2-hydroxy-ethyl]- 3-amino butane and salts and hydrates thereof” (priority 1982, dated 1985)
Where two headings read alike, the source gives them in different places.

Experiments:
[1] = Acute toxicity in the mouse, intravenous; settings: in vivo
Description: These two compounds were the subject of an acute toxicity study in the mouse.
The two compounds had similar toxicity and the pharmacological study was able, indifferently, to be carried out with one or the other, the results being, in the two cases, expressed by weight of base per kg of body weight for the in vivo tests and in molar concentration for the in vitro tests.

uterine horn = experiment: Uterus relaxing activity in vivo (ocytocine-induced contractions); settings: rat, i.v.; compound A 16.8 μg/kg vs salbutamol 24.9 μg/kg
Procedure: The test was carried out also in the rat.
The aminal was anesthesied by ethyl carbamate.
The contractions caused in an exposed uterine horn immersed in a nutrient bath were recorded (bath: RINGER-LOCKE modified by GADDUM and VOGT). These contractions were induced by the intravenous injection of ocytocine, at the dose of 0.1 IU per kg.
After a control recording of the effects of the latter, the compound A or the Salbutamol were administered intravenously and the further ocytocine injection was carried out; its effect was compared with that of the control reaction.

heart rate [2] = experiment: β-stimulant specificity: heart rate of the anesthetised dog, antagonism of compound A tachycardia by acebutolol; type: in vivo
Description: The results below are the averages of the values obtained in 3 dogs.

heart rate [3] = experiment: Heart rate of the un-anesthetised dog, oral; type: in vivo, Beagle dog
[4] = T0 + 1 min, perfusion compound A 4.2 μg/kg/min, T0: 157
[5] = T1 + 4 h 1 min, second perfusion compound A after acebutolol
[6] = T1 + 4 h 2 min, second perfusion compound A after acebutolol
[7] = T1 + 4 h 4 min, second perfusion compound A after acebutolol
[8] = T1 + 4 h 6 min, second perfusion compound A after acebutolol

COc1cc(C(O)CNC(C)CCn2cnc3ccccc32)ccc1O (stereo not drawn) [Compound A, 1-[1-benzimidazolyl]-N-[2-(4-hydroxy-3-methoxy-phenyl)2-hydroxy-ethyl]3-amino butane basic sulphate, dihydrate]
LD50 ([1]; as base, confidence limits printed, read-out: LD50 expressed as base): 96 mg/kg | LD50 ([1]; by weight of product, confidence limits p=0.05 printed, read-out: LD50): 114 mg/kg | Inhibiting activity on ocytocine-induced uterine contractions (comparison with Salbutamol) (uterine horn): inhibiting activity comparable with that of salbutamol | Heart rate (heart rate [2]; [4]): 180 beats/min | Heart rate variation (heart rate [2]; [4]): +23 | Heart rate variation (heart rate [2]; T0 + 2 min, perfusion compound A): +40 | Heart rate (heart rate [2]; T0 + 2 min, perfusion compound A, T0: 157): 197 beats/min | Heart rate variation (heart rate [2]; T0 + 4 min, perfusion compound A): +45 | Heart rate (heart rate [2]; T0 + 4 min, perfusion compound A, T0: 157): 202 beats/min | Heart rate variation (heart rate [2]; T0 + 6 min = T1, perfusion compound A): +48 | Heart rate (heart rate [2]; T0 + 6 min = T1, perfusion compound A, T0: 157): 205 beats/min | Heart rate (heart rate [2]; [5]): 146 beats/min | Heart rate variation (heart rate [2]; [5]): -11 | Heart rate (heart rate [2]; [6]): 155 beats/min | Heart rate variation (heart rate [2]; [6]): -2 | Heart rate (heart rate [2]; [7]): 160 beats/min | Heart rate variation (heart rate [2]; [7]): +3 | Heart rate (heart rate [2]; [8]): 160 beats/min | Heart rate variation (heart rate [2]; [8]): +3

CC(C)(C)NCC(O)c1ccc(O)c(CO)c1 (stereo not drawn) [Salbutamol, reference compound]
Heart rate, average (heart rate [3]; 25 μg base/kg, 15 min, time 0: 92, 12 dogs): 142 | Heart rate, average (heart rate [3]; 25 μg base/kg, 30 min, time 0: 92): 165 | Heart rate, average (heart rate [3]; 25 μg base/kg, 1 h, time 0: 92): 170 | Heart rate, average (heart rate [3]; 25 μg base/kg, 2 h, time 0: 92): 156 | Heart rate, average (heart rate [3]; 25 μg base/kg, 3 h, time 0: 92): 137 | Heart rate, average (heart rate [3]; 25 μg base/kg, 4 h, time 0: 92): 130 | Heart rate, average (heart rate [3]; 25 μg base/kg, 5 h, time 0: 92): 120 | Heart rate, average (heart rate [3]; 83 μg base/kg, 15 min, time 0: 90, 12 dogs): 163 | Heart rate, average (heart rate [3]; 83 μg base/kg, 30 min, time 0: 90): 194 | Heart rate, average (heart rate [3]; 83 μg base/kg, 1 h, time 0: 90): 197 | Heart rate, average (heart rate [3]; 83 μg base/kg, 2 h, time 0: 90): 195 | Heart rate, average (heart rate [3]; 83 μg base/kg, 3 h, time 0: 90): 172 | Heart rate, average (heart rate [3]; 83 μg base/kg, 4 h, time 0: 90): 150 | Heart rate, average (heart rate [3]; 83 μg base/kg, 5 h, time 0: 90): 148 | Heart rate, average (heart rate [3]; 83 μg base/kg, 6 h, time 0: 90): 141 | Heart rate, average (heart rate [3]; 83 μg base/kg, 7 h, time 0: 90): 138 | Tachycardiac activity (comparison with Salbutamol) (heart rate [3]; un-anesthetised dog, in words): more active than compound B: the effect of the low dose of Salbutamol is equal to that of the high dose of compound B
